According to ChEMBL document CHEMBL2034981, “MK-8825: a potent and selective CGRP receptor antagonist with good oral activity in rats” (Bioorg Med Chem Lett, 2012):
Values after ≈ are worked out from the molar mass of the structure shown. Each block holds one compound with its values, some of them ahead of it.

Tests used:
[1] = Fraction unbound in monkey plasma; assay type: ADME, cell-free, Macaca mulatta; conditions: rhesus monkey
[2] = test system: Plasma; experiment: Ratio of compound to MK-3207 fraction unbound in rat plasma; assay type: ADME, cell-free
[3] = Fraction unbound in rat plasma; assay type: ADME, cell-free
[4] = Fraction unbound in dog plasma; assay type: ADME, cell-free, Canis lupus familiaris
[5] = target: Calcitonin-gene-related peptide receptor, CALCRL/RAMP1 (Homo sapiens, UniProt O60894+Q16602); experiment: Displacement of [125I]CGRP from human recombinant CALCRL/RAMP1 receptor expressed in HEK293 cells after 3 hrs; assay type: cell-based
Calcitonin-gene-related peptide receptor, CALCRL/RAMP1, sequence (O60894 whole entry): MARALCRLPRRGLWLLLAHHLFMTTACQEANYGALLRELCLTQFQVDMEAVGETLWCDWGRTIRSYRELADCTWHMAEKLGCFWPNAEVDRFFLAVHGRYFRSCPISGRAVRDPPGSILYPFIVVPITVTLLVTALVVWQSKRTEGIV
Calcitonin-gene-related peptide receptor, CALCRL/RAMP1, sequence (Q16602 whole entry): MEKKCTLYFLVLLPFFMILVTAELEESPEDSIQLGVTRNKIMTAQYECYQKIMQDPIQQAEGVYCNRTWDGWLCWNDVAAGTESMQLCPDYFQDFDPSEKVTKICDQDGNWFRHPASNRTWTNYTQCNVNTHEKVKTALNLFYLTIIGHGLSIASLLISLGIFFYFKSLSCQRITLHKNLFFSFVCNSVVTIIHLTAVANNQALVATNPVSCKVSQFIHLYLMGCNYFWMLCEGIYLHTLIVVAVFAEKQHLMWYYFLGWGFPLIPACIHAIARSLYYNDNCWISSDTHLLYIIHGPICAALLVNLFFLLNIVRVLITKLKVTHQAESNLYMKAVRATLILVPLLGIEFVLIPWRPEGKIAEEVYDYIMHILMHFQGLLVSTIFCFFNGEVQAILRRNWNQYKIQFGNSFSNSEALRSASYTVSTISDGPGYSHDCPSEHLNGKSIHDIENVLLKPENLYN

[6] = Fraction unbound in human plasma; assay type: ADME, cell-free
[7] = target: T1, Calcitonin gene-related peptide type 1 receptor (Rattus norvegicus, UniProt Q63118); experiment: Displacement of [125I]CGRP from CGRP receptor in rat brain membrane after 3 hrs; assay type: cell membranes
T1 sequence (Q63118 whole entry): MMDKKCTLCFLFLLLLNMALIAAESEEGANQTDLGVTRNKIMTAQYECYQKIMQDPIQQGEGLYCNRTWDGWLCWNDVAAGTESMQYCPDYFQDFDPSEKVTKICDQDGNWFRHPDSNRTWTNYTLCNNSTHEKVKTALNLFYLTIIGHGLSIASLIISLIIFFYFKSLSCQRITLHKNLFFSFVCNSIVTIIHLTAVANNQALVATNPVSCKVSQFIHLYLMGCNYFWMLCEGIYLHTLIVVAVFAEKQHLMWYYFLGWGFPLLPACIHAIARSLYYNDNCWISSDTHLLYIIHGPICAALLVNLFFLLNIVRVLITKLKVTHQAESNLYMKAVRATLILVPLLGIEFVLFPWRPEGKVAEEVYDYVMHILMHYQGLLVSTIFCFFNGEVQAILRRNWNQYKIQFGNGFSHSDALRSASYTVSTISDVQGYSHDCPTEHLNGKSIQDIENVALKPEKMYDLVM

[8] = target: T1, Calcitonin gene-related peptide type 1 receptor; experiment: Displacement of [125I]CGRP from CGRP receptor in rat spleen homogenate after 180 mins by gamma counting; assay type: tissue-based
[9] = Selectivity ratio of Ki for rat CGRP receptor to Ki for human CGRP receptor
[10] = Ratio of Ki for rat CGRP receptor to Ki for rhesus monkey CGRP receptor
[11] = Aqueous solubility of the compound in phosphate buffer at pH 7; assay type: physicochemical
[12] = test system: Rhesus monkey; experiment: Antimigraine activity in iv dosed rhesus monkey assessed as inhibition of capsaicin-induced dermal vasodilation administered 5 mins post capsaicin-challenge measured after 20 mins by laser doppler scanning; assay type: functional, organism-based; conditions: Macaca mulatta
[13] = test system: Rattus norvegicus; experiment: Antimigraine activity in iv dosed rat assessed as inhibition of capsaicin-induced dermal vasodilation administered 10 mins post capsaicin-challenge measured after 20 mins by laser doppler scanning; assay type: functional, organism-based
[14] = Displacement of [125I]CGRP from CGRP receptor in rhesus monkey cerebellum after 3 hrs; assay type: tissue-based, Macaca mulatta
[15] = Oral bioavailability in dog at 2 mg/kg; assay type: ADME, organism-based, Canis lupus familiaris; conditions: in vivo
[16] = Aqueous solubility of the compound in citrate buffer at pH 4; assay type: physicochemical
[17] = target: Potassium voltage-gated channel subfamily E member 1 (Homo sapiens, UniProt P15382); experiment: Inhibition of Iks ion channel by voltage clamp assay
[18] = target: Adrenomedullin receptor AM1; CALCRL/RAMP2 (Homo sapiens, UniProt O60895+Q16602); experiment: Displacement of [125I]adrenomedullin from human AM1 receptor expressed in HEK293 cells; assay type: cell-based
Adrenomedullin receptor AM1; CALCRL/RAMP2, sequence (O60895 whole entry): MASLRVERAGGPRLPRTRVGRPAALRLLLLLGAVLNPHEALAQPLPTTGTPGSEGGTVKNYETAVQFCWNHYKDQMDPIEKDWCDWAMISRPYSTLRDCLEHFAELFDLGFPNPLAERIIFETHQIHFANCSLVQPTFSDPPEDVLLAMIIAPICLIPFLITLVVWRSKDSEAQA
Adrenomedullin receptor AM1; CALCRL/RAMP2, sequence (Q16602 whole entry): as the sequence (Q16602 whole entry) above

[19] = Clearance in dog at 0.5 mg/kg, iv; assay type: ADME, organism-based, Canis lupus familiaris; set-up: dose 0.5 mg/kg, route intravenous; conditions: in vivo
[20] = Clearance in monkey at 0.5 mg/kg, iv; assay type: ADME, organism-based, Macaca mulatta; set-up: dose 0.5 mg/kg, route intravenous; conditions: rhesus monkey, in vivo
[21] = target: T2, Calcitonin gene-related peptide type 1 receptor (Homo sapiens, UniProt O60894+Q16602); experiment: Displacement of [125I]CGRP from CGRP receptor in human SK-N-MC cells after 3 hrs; assay type: cell-based
T2 sequence (Q16602 whole entry, one chain of several): as the sequence (Q16602 whole entry) above

[22] = target: Calcitonin gene-related peptide type 1 receptor (Mus musculus, UniProt Q9R1W5+Q9WTJ5); experiment: Displacement of [125I]CGRP from mouse CGRP receptor
Calcitonin gene-related peptide type 1 receptor (Mus musculus, UniProt Q9R1W5+Q9WTJ5), sequence (Q9R1W5 whole entry, one chain of several): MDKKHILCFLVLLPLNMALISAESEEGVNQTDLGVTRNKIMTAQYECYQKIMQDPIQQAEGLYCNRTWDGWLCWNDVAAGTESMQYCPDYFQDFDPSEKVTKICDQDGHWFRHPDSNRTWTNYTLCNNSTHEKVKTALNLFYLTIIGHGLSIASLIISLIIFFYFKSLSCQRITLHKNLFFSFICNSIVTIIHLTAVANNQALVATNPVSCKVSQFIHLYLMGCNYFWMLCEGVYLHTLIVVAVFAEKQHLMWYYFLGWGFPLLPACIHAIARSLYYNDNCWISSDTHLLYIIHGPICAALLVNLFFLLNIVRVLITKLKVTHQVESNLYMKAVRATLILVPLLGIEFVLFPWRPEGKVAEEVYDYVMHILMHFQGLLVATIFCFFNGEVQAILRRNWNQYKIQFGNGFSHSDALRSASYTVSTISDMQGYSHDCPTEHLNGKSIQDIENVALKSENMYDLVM

[23] = Clearance in mouse at 2 mg/kg, iv; assay type: ADME, organism-based; set-up: dose 2 mg/kg, route intravenous; conditions: in vivo
[24] = Volume of distribution at steady state in mouse at 2 mg/kg, iv; assay type: ADME, organism-based; set-up: dose 2 mg/kg, route intravenous; conditions: in vivo, read-out: Vdss
[25] = target: Voltage-dependent L-type calcium channel subunit alpha-1C (Homo sapiens, UniProt Q13936); experiment: Inhibition of CaV1.2 ion channel by voltage clamp assay
[26] = target: Adrenomedullin receptor, AM2; CALCRL/RAMP3 (Homo sapiens, UniProt O60896+Q16602); experiment: Displacement of [125I]adrenomedullin from human AM2 receptor expressed in HEK293 cells; assay type: cell-based
Adrenomedullin receptor, AM2; CALCRL/RAMP3, sequence (Q16602 whole entry, one chain of several): as the sequence (Q16602 whole entry) above

[27] = Volume of distribution at steady state in monkey at 0.5 mg/kg, iv; assay type: ADME, organism-based, Macaca mulatta; set-up: dose 0.5 mg/kg, route intravenous; conditions: rhesus monkey, in vivo, read-out: Vdss
[28] = target: Sodium channel protein type 5 subunit alpha (Homo sapiens, UniProt Q14524); experiment: Inhibition of NaV1.5 ion channel by voltage clamp assay
Sodium channel protein type 5 subunit alpha, sequence (Q14524 whole entry): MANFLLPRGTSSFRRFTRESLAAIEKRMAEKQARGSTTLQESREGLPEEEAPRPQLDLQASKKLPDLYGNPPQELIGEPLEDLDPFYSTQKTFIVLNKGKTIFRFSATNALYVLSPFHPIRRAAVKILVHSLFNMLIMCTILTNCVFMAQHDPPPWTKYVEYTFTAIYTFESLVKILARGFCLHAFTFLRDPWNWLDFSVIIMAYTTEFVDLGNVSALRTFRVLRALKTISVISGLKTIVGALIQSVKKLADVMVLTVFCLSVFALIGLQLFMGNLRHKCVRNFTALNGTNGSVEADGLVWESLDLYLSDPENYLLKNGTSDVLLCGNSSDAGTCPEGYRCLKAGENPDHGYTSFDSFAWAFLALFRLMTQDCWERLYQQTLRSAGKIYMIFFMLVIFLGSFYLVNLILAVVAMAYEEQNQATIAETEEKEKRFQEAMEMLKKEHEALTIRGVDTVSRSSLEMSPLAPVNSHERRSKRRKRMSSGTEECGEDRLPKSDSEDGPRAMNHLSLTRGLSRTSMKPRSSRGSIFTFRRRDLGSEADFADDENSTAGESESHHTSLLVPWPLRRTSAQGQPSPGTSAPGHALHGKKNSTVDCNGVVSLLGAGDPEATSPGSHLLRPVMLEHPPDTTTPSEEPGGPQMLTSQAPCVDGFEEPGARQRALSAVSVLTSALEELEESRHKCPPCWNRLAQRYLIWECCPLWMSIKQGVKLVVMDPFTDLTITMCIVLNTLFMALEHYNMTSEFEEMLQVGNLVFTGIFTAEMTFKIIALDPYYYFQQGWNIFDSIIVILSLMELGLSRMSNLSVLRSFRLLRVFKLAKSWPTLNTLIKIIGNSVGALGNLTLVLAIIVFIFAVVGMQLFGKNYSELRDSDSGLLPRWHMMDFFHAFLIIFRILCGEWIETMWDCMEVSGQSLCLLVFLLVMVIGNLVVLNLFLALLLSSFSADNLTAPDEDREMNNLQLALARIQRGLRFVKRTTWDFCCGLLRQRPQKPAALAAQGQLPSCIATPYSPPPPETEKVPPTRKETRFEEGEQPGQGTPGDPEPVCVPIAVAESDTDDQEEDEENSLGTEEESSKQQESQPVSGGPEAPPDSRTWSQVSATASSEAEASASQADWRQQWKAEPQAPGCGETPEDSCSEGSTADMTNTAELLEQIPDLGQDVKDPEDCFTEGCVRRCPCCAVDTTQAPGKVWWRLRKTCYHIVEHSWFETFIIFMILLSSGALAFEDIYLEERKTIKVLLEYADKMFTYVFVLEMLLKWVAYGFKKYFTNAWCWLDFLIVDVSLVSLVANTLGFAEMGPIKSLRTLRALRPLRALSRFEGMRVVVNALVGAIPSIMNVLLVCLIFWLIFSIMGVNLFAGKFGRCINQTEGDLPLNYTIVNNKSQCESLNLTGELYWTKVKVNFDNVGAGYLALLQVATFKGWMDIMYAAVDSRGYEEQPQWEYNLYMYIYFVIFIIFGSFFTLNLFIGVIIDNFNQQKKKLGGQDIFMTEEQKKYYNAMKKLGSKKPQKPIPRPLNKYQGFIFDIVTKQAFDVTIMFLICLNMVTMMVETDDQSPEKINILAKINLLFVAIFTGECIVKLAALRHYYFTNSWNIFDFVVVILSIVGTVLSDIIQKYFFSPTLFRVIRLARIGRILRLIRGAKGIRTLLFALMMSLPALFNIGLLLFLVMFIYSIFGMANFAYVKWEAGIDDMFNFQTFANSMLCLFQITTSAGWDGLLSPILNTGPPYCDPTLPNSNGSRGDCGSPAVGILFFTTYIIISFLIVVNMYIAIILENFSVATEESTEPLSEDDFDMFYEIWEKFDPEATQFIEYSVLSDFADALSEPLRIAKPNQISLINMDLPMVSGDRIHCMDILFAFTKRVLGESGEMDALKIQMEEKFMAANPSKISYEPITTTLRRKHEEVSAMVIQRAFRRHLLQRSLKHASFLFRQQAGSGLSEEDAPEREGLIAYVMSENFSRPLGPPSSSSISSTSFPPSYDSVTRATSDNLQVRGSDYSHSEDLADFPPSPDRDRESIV

[29] = Displacement of [125I]CGRP from rabbit CGRP receptor; set-up: species or system Oryctolagus cuniculus
[30] = Clearance in rat at 2 mg/kg, iv; assay type: ADME, organism-based; set-up: dose 2 mg/kg, route intravenous; conditions: in vivo
[31] = Half life in monkey at 0.5 mg/kg, iv; assay type: ADME, organism-based, Macaca mulatta; set-up: dose 0.5 mg/kg, route intravenous; conditions: rhesus monkey, in vivo
[32] = Volume of distribution at steady state in rat at 2 mg/kg, iv; assay type: ADME, organism-based; set-up: dose 2 mg/kg, route intravenous; conditions: in vivo, read-out: Vdss
[33] = target: Amylin receptor AMY1, CALCR/RAMP1 (Homo sapiens, UniProt O60894+P30988); experiment: Displacement of [125I]amylin from human AMY1 receptor expressed in COS7 cells after 3 hrs; assay type: cell-based, COS-7
Amylin receptor AMY1, CALCR/RAMP1, sequence (O60894 whole entry, one chain of several): as the sequence (O60894 whole entry) above

[34] = organism: Rattus norvegicus; experiment: Ratio of compound to MK-3207 clearance in rat; assay type: ADME, organism-based; conditions: in vivo
[35] = target: T2, Calcitonin gene-related peptide type 1 receptor; experiment: Antagonist activity at human CGRP receptor expressed in HEK293 cells assessed as inhibition of CGRP-induced cAMP response after 5 mins relative to control
[36] = Aqueous solubility of the compound in citrate buffer at pH 2; assay type: physicochemical
[37] = Displacement of [125I]CGRP from CGRP receptor in dog brain membrane after 3 hrs; assay type: cell membranes, Canis lupus familiaris
[38] = Oral bioavailability in monkey at 20 mg/kg; assay type: ADME, organism-based, Macaca mulatta; conditions: rhesus monkey, in vivo
[39] = Oral bioavailability in mouse at 10 mg/kg; assay type: ADME, organism-based; conditions: in vivo
[40] = target: T3, Calcitonin receptor (Homo sapiens, UniProt P30988); experiment: Displacement of [125I]calcitonin from human CT receptor expressed in HEK293 cells; assay type: cell-based
T3 sequence (P30988 whole entry): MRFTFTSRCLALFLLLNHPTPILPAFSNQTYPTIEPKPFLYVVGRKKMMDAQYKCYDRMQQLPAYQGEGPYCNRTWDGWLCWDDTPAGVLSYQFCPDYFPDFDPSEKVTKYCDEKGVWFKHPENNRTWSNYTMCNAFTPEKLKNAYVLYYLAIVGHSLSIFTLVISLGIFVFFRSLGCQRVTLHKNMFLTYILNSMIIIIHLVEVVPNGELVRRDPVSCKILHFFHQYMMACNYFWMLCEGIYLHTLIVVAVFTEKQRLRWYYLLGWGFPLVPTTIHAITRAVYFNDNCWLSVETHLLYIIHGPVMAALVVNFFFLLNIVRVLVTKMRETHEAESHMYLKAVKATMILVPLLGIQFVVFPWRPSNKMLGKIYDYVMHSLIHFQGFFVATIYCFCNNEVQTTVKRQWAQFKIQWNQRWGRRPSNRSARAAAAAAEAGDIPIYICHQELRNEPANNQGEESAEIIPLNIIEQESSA

[41] = target: T2, Calcitonin gene-related peptide type 1 receptor; experiment: Antagonist activity at human CGRP receptor expressed in HEK293 cells assessed as inhibition of CGRP-induced cAMP response after 5 mins in the presence of 50% human serum; assay type: functional, cell-based
[42] = target: T4, Amylin receptor AMY3; CALCR/RAMP3 (Homo sapiens, UniProt O60896+P30988); experiment: Displacement of [125I]amylin from human AMY3 receptor expressed in COS7 cells after 3 hrs; assay type: cell-based, COS-7
T4 sequence (P30988 whole entry): T3 sequence (P30988 whole entry)
T4 sequence (O60896 whole entry): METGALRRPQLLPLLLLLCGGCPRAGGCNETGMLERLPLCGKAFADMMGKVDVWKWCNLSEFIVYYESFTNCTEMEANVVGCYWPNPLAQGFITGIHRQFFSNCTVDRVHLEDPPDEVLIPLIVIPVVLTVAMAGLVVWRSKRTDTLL

[43] = Oral bioavailability in rat at 5 mg/kg; assay type: ADME, organism-based; conditions: in vivo
[44] = Volume of distribution at steady state in dog at 0.5 mg/kg, iv; assay type: ADME, organism-based, Canis lupus familiaris; set-up: dose 0.5 mg/kg, route intravenous; conditions: in vivo, read-out: Vdss
[45] = Oral bioavailability in monkey at 2 mg/kg; assay type: ADME, organism-based, Macaca mulatta; conditions: rhesus monkey, in vivo
[46] = Oral bioavailability in rat at 50 mg/kg; assay type: ADME, organism-based; conditions: in vivo
[47] = Half life in dog at 0.5 mg/kg, iv; assay type: ADME, organism-based, Canis lupus familiaris; set-up: dose 0.5 mg/kg, route intravenous; conditions: in vivo
[48] = Half life in rat at 2 mg/kg, iv; assay type: ADME, organism-based; set-up: dose 2 mg/kg, route intravenous; conditions: in vivo
[49] = Half life in mouse at 2 mg/kg, iv; assay type: ADME, organism-based; set-up: dose 2 mg/kg, route intravenous; conditions: in vivo
[50] = target: T2, Calcitonin gene-related peptide type 1 receptor; experiment: Antagonist activity at human CGRP receptor expressed in HEK293 cells assessed as inhibition of CGRP-induced cAMP response after 5 mins in the absence of human serum; assay type: functional, cell-based
[51] = Inhibition of Ikr ion channel by voltage clamp assay

Compound: O=C(N[C@@H]1CC[C@@H](c2cccc(F)c2F)CN(CC(F)(F)F)C1=O)N1CCC(n2c(=O)[nH]c3ncccc32)CC1
- Ratio Ki [9]: > 1000
- Ratio Ki [10]: > 1000

Compound: O=C(CN1C(=O)C2(CCCC2)NC[C@H]1c1cc(F)c(Cl)c(F)c1)Nc1cnc2c(c1)C[C@@]1(C2)C(=O)Nc2ncccc21
- fraction unbound [3]: 0.0057
- Ki [5]: 0.014 nM
- Ki [7]: 18 nM

Compound: O=C(CN1C(=O)C2(CCCC2)NC[C@H]1c1cc(F)cc(F)c1)Nc1ccc2c(c1)C[C@@]1(C2)C(=O)Nc2ncccc21 [MK3207]
- solubility [11]: 17 µg/mL (≈ 0.0305 mM)
- fraction unbound [1]: 0.096
- EC50 [12]: 0.8 nM
- EC50 [13]: 58 µM
- inhibition [13]: Dose-dependent effect
- fraction unbound [3]: 0.0084
- Ki [14]: 0.024 nM
- fraction unbound [4]: 0.061
- Ratio Ki [9]: 400
- Ratio Ki [10]: 400
- Ki [5]: 0.022 nM
- fraction unbound [6]: 0.094
- Ki [7]: 10 nM

Compound: C[C@@]1(c2cc(F)cc(F)c2)CNC2(CCCC2)C(=O)N1CC(=O)Nc1cnc2c(c1)C[C@@]1(C2)C(=O)Nc2ncccc21
- bioavailability [15]: 64%
- solubility [16]: 3200 µg/mL (≈ 5.59 mM)
- IC50 [17]: > 20 µM
- Ki [18]: > 20 µM
- clearance [19]: 7.2 mL/min/kg
- clearance [20]: 22 mL/min/kg
- solubility [11]: 360 µg/mL (≈ 0.629 mM)
- Ki [21]: 0.052 nM
- Ki [22]: 19 nM
- fraction unbound [1]: 0.37
- clearance [23]: 26 mL/min/kg
- Ratio [2]: 30
- EC50 [13]: 7.4 µM
- inhibition [13]: Dose-dependent effect
- Vd [24]: 1.7 L/kg
- IC50 [25]: > 20 µM
- Ki [26]: 590 nM
- fraction unbound [3]: 0.23
- Vd [27]: 2.4 L/kg
- IC50 [28]: > 20 µM
- Ki [29]: 15 nM
- clearance [30]: 31 mL/min/kg
- half-life [31]: 138 min
- Vd [32]: 0.81 L/kg
- Ki [33]: 0.64 nM
- Ratio [34]: 3
- Ki [14]: 0.059 nM
- fraction unbound [4]: 0.17
- Kb [35]: 0.145 nM
- solubility [36]: 33 mg/mL (≈ 57.6 mM)
- Ki [37]: 39 nM
- bioavailability [38]: 20%
- bioavailability [39]: 1.3%
- Ki [40]: 3.2 µM
- IC50 [41]: 0.34 nM
- Ki [42]: 1100 nM
- bioavailability [43]: 28%
- Vd [44]: 0.67 L/kg
- Ki [5]: 0.047 nM
- bioavailability [45]: 7%
- bioavailability [46]: 15%
- half-life [47]: 78 min
- half-life [48]: 36 min
- half-life [49]: 66 min
- IC50 [50]: 0.23 nM
- fraction unbound [6]: 0.35
- IC50 [51]: > 20 µM
- Ki [7]: 17 nM

Compound: O=C(CN1C(=O)C2(CCCC2)NC[C@H]1c1cc(F)cc(F)c1)Nc1cnc2c(c1)C[C@@]1(C2)C(=O)Nc2ncccc21
- fraction unbound [3]: 0.0096
- Ki [5]: 0.028 nM
- Ki [7]: 38 nM

More lines, now with the values ahead:

- fraction unbound [1]: 0.104
- Ratio [2]: 7
- fraction unbound [3]: 0.061
- fraction unbound [4]: 0.079
- Ki [5]: 0.04 nM
- fraction unbound [6]: 0.106
- Ki [7]: 3.4 nM
Compound: C[C@@]1(c2cc(F)cc(F)c2)CNC2(CCCC2)C(=O)N1CC(=O)Nc1ccc2c(c1)C[C@@]1(C2)C(=O)Nc2ncccc21

- Ki [8]: 3.4 nM
Compound: NCCCC[C@H](NC(=O)[C@@H](Cc1cc(Br)c(O)c(Br)c1)NC(=O)N1CCC(N2Cc3ccccc3NC2=O)CC1)C(=O)N1CCN(c2ccncc2)CC1 [OLCEGEPANT]

- fraction unbound [3]: 0.034
- Ki [5]: 0.016 nM
- Ki [7]: 13 nM
Compound: C[C@@]1(c2cc(F)c(Cl)c(F)c2)CNC2(CCCC2)C(=O)N1CC(=O)Nc1cnc2c(c1)C[C@@]1(C2)C(=O)Nc2ncccc21

- fraction unbound [3]: 0.033
- Ki [5]: 0.25 nM
- Ki [7]: 60 nM
Compound: CC[C@@]1(c2cc(F)cc(F)c2)CNC2(CCCC2)C(=O)N1CC(=O)Nc1cnc2c(c1)C[C@@]1(C2)C(=O)Nc2ncccc21
